From patent US6828091B2, “Method of identifying immunosuppressive agents” (Cytovia, Inc., priority 2000, dated 2004)

How the values were obtained:
resting T lymphocytes [1] = assay: Caspase cascade activation with fluorogenic reporter, resting T lymphocytes; assay type: cell-based, Human; conditions: for Induction of apoptosis in resting T cells (in words): 24 hr; for Caspase Induction in Resting T Cells 24 Hr Induction (Ratio): resting human T lymphocytes, 24 hr incubation, ratio Net Sample RFU/Net Control RFU
Protocol: (§1) Human peripheral blood mononuclear cells (PBMC), were purchased from Clonetics, San Diego (cat. No. CC2702). These cells were primarily enriched in T lymphocytes by a process of leukapheresis and density gradient centrifugation (Clonetics), and contain some monocytes and no B lymphocytes or Dendritic cells. Cells are cultured (0.75×10^6 cells/ml) in RPMI 1640 medium containing 10% fetal bovine serum (Gibco), 2 mM L-Glutamine, 25 mM Hepes, 1 mM sodium pyruvate, 1 mM non-essential aminoacids (NEAA) and 1% penicillin/streptomycin solution. Cells were then activated with 100 ng/ml of murine monoclonal antibody (OKT3) to the human T cell receptor (Liu, Y-C., et al., J. Biol. Chem 272: 9979 (1996)). Cells were incubated at 37° C. in a 5% CO2-95% humidity incubator for 3 days. […] In a parallel experiment, resting T lymphocytes that were not activated by the above method were used directly in an experiment. An aliquot of 45 μl of activated or resting T lymphocytes (containing 10^5 cells) was added to a well of a 96-well microtiter plate containing 5 μl of a 10% DMSO in RPMI 1640 medium containing serial 2-fold dilution of the different test compounds starting at a concentration of 10 uM.
(§2) An aliquot of 45 μl of cells was also added to a well of a 96-well microtiter plate containing 5 μl of a 10% DMSO in RPMI 1640 medium without the test compounds as the control sample. The samples were gently mixed by agitation and then incubated at 37° C. for 24 hr in a 5% CO2-95% humidity incubator. After incubation, the samples were removed from the incubator and 50 μl of a solution containing 20 μM of N-(Ac-DEVD)-N′-ethoxycarbonyl-R110 (SEQ ID NO. 1) fluorogenic substrate U.S. Pat. No. 6,342,611; WO 99/18856), 20 mM DTT(Sigma) in Hanks Balanced Salt Solution (HBSS, Gibco) was added. The samples were mixed by agitation and incubated for 1 hr at room temperature. Using a fluorescent plate reader (Model 1420, Wallac Instruments), an initial reading (T=0) was made approximately […] after addition of the substrate solution, employing excitation at 485 nm and emission at 530 nm, to determine the background fluorescence of the control sample. After the 1 hr incubation, the samples were read for fluorescence as above (T=1 hr).
(§3) Calculation: Measured relative fluorescence unit (RFU) values were used to calculate the gain in fluorescence of the sample with the test compound as follows:
(§4) Sample RFU(T=1 hr)−Sample RFU(T=0)=Net Sample RFU (4)
(§5) and the background gain in fluorescence of the control sample (lacking the test compound) as follows:
(§6) Control RFU(I=1 hr)−Control RFU(I=0)=Net Control RFU (5)
(§7) The relative potency of a given test compound is given by the following ratio:
(§8) (Net Sample RFU)/(Net Control RFU) (6)

activated T lymphocytes [2] = assay: Caspase cascade activation with fluorogenic reporter, activated T lymphocytes; assay type: cell-based, Human; conditions: for Caspase Activity in Activated Cells 24 Hr Induction (Ratio): OKT3-activated human T lymphocytes, 24 hr incubation, ratio Net Sample RFU/Net Control RFU; for Induction of apoptosis in activated T cells (in words): 24 hr
Protocol: as §1, §2, §3, §4, §5, §6, §7, §8

resting T lymphocytes [3] = assay: Cytotoxicity with chromogenic reporter of mitochondrial activity, resting T lymphocytes; assay type: cell-based, Human; conditions: 48 hr, absorbance 490 nm, FIG. 1 or 2
Protocol: (§9) Human peripheral blood mononuclear cells (PBMC), were purchased from Clonetics, San Diego (cat. no. CC2702). These cells were primarily enriched in T lymphocytes by a process of leukapheresis and density gradient centrifugation (Clonetics), and contain some monocytes and no B lymphocytes or Dendritic cells. Cells are cultured (0.75×10^6 cells/ml) in RPMI 1640 medium containing 10% fetal bovine serum (Gibco), 2 mM L-Glutamine, 25 mM Hepes, 1 mM sodium pyruvate, 1 mM non essential aminoacids (NEAA) and 1% penicillin/streptomycin solution. Cells were then activated with 100 ng/ml of murine monoclonal antibody to the human T cell receptor (Liu, Y-C., et al., J. Biol. Chem. 272: 9979 (1996)). Cells were incubated at 37° C. in a 5% CO2-95% humidity incubator for 3 days. […] In a parallel experiment, resting T lymphocytes that were not activated in the above mentioned method were used directly in an experiment.
(§10) An aliquot of 45 μl of activated or resting T lymphocytes (containing 10^5 cells) was added to wells of a 96-well microtiter plate containing 5 μl of a 10% DMSO in RPMI 1640 medium containing different dilutions of the test compounds. […] Using a plate reader (Model 1420, Wallac Instruments), samples were read at absorbance 490 nm.

activated T lymphocytes [4] = assay: Cytotoxicity with chromogenic reporter of mitochondrial activity, activated T lymphocytes; assay type: cell-based, Human; conditions: 48 hr, absorbance 490 nm, FIG. 1 or 2
Protocol: as §9, §10

[5] = test system: collagen induced arthritis; assay: Collagen-induced arthritis (CIA) mouse model; assay type: in vivo; conditions: 1 mg/kg subcutaneously daily from 2nd immunization (Day 21), DBA/1 mice, FIG. 3

Cc1ccc(C2CC(c3c(O)cc(C)oc3=O)=NCCS2)cc1 (stereo not shown) [5-(4-hydroxy-6-methyl-2H-pyran-2-one-3-yl)-7-(4-methylphenyl)-2,3,6,7-tetrahydro-1,4-thiazepine]
Induction of apoptosis in resting T cells (in words) (resting T lymphocytes [1]): did not induce apoptosis in either cell type | Caspase Induction in Resting T Cells 24 Hr Induction (Ratio) (resting T lymphocytes [1]): 1.0 | Caspase Activity in Activated Cells 24 Hr Induction (Ratio) (activated T lymphocytes [2]): 1.0 | Induction of apoptosis in activated T cells (in words) (activated T lymphocytes [2]): did not induce apoptosis in either cell type

CC(C)=CCC[C@]1(C)C=Cc2c(O)c3c(c(CC=C(C)C)c2O1)O[C@]12C(=C[C@@H]4C[C@H]1C(C)(C)O[C@@]2(C/C=C(/C)C(=O)O)C4=O)C3=O [gambogic acid]
Induction of apoptosis in resting T cells (in words) (resting T lymphocytes [1]): induced apoptosis in both activated and resting T cells | Caspase Induction in Resting T Cells 24 Hr Induction (Ratio) (resting T lymphocytes [1]): 2.0 | Caspase Activity in Activated Cells 24 Hr Induction (Ratio) (activated T lymphocytes [2]): 3.4 | Induction of apoptosis in activated T cells (in words) (activated T lymphocytes [2]): induced apoptosis in both activated and resting T cells

CN(Cc1cnc2nc(N)nc(N)c2n1)c1ccc(C(=O)N[C@@H](CCC(=O)O)C(=O)O)cc1 [methotrexate]
Cytotoxicity to resting T cells (in words) (resting T lymphocytes [3]): not to resting T lymphocytes | Cytotoxicity to activated T cells (in words) (activated T lymphocytes [4]): only cytotoxic to activated

C[C@]12C=CC(=O)C=C1CC[C@@H]1[C@@H]2[C@@H](O)C[C@@]2(C)[C@H]1CC[C@]2(O)C(=O)CO [predisolone, Prednisolone]
Decrease in cumulative CIA score [5]: 75%

CN[C@@H]1C[C@H]2O[C@@](C)([C@@H]1OC)n1c3ccccc3c3c4c(c5c6ccccc6n2c5c31)C(=O)NC4 [staurosporine]
Cytotoxicity to resting T cells (in words) (resting T lymphocytes [3]): cytotoxic to both activated and resting T cells | Cytotoxicity to activated T cells (in words) (activated T lymphocytes [4]): cytotoxic to both activated and resting T cells
